Results taken from ChEMBL document CHEMBL1201862, “PubChem BioAssay data set” (2004).
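Step 1: Grow cells in 96-well plates. Step 2: Expose to compound for 48 hours at 5 concentrations. Step 3: Interpolate endpoints linearly; if unreached, use highest concentration. GI50 is the concentration that inhibits growth by half.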 The source made the active and inactive calls. Cut-off read from the data, not from the text of the source: active = GI50 up to about 1.1 µM and inactive = higher. Where a SMILES comes first, the peptide text is derived from it. Bridges are numbered along the chain shown (N, C = ends). [ ]: non-standard residue; d: D form. The star is where a group is joined. ξ: configuration not given here. PhAc = O=C(Cc1ccccc1)*; ξP = O=C(O)C1CCCN1

Legend:
Assay in all cases: inhibition of tumour cell growth, NCI panel, 48 h
A498 = test system: A498
ACHN = test system: ACHN
CCRF-CEM = test system: CCRF-CEM
HCT-15 = test system: HCT-15
HL-60 = test system: HL-60
HOP-62 = test system: HOP-62
IGROV-1 = test system: IGROV-1
KM12 = test system: KM12
M14 = test system: M14
MDA-MB-435 = test system: MDA-MB-435
NCI-H23 = test system: NCI-H23
OVCAR-4 = test system: OVCAR-4
OVCAR-5 = test system: OVCAR-5
OVCAR-8 = test system: OVCAR-8
PC-3 = test system: PC-3
SW-620 = test system: SW-620
TK-10 = test system: TK-10
BT-549 = test system: BT-549
Hs-578T = test system: Hs-578T

| Compound | GI50 (A498) | GI50 (ACHN) | GI50 (CCRF-CEM) | GI50 (HCT-15) [µM] | GI50 (HL-60) | GI50 (HOP-62) | GI50 (IGROV-1) | GI50 (KM12) | GI50 (M14) | GI50 (MDA-MB-435) | GI50 (NCI-H23) | GI50 (OVCAR-4) | GI50 (OVCAR-5) | GI50 (OVCAR-8) | GI50 (PC-3) | GI50 (SW-620) | GI50 (TK-10) | GI50 (BT-549) | GI50 (Hs-578T) |
| --- | --- | --- | --- | --- | --- | --- | --- | --- | --- | --- | --- | --- | --- | --- | --- | --- | --- | --- | --- |
| CCOC(=O)c1csc(NC(=O)CN2CCN(C)CC2)n1 | > 100 µM (inactive) | > 100 µM (inactive) | > 100 µM (inactive) | > 100 | > 100 µM (inactive) | > 100 µM (inactive) | > 100 µM (inactive) | > 100 µM (inactive) | > 100 µM (inactive) | > 100 µM (inactive) | > 100 µM (inactive) | > 100 µM (inactive) | > 100 µM (inactive) | > 100 µM (inactive) | > 100 µM (inactive) | > 100 µM (inactive) | > 100 µM (inactive) |  |  |
| Cc1cc(C)n(-c2nsc3ccccc23)n1 |  | > 100 µM (inactive) | > 100 µM (inactive) | > 100 | > 100 µM (inactive) | > 100 µM (inactive) | > 100 µM (inactive) | > 100 µM (inactive) | > 100 µM (inactive) |  | > 100 µM (inactive) | > 100 µM (inactive) | > 100 µM (inactive) | > 100 µM (inactive) |  | > 100 µM (inactive) | > 100 µM (inactive) |  |  |
| N#Cc1c(-c2ccc(Cl)cc2)cc(-c2ccc(Nc3ccnc4cc(Cl)ccc34)cc2)nc1N | > 100 µM (inactive) | > 100 µM (inactive) |  | > 100 | > 100 µM (inactive) | > 100 µM (inactive) | > 100 µM (inactive) | > 100 µM (inactive) | > 100 µM (inactive) | > 100 µM (inactive) | > 100 µM (inactive) | 38.2 µM (inactive) | > 100 µM (inactive) | 40.1 µM (inactive) | > 100 µM (inactive) | > 100 µM (inactive) | > 100 µM (inactive) | > 100 µM (inactive) |  |
| O=Cc1c2c(cc3c1CC1(C3)Cc3cc4c(c(C=O)c3C1)CCCC4)CCCC2 | > 10 µM (inactive) | 22.9 µM (inactive) |  | 19.2 | 56.1 µM (inactive) | > 31.6 µM (inactive) | 23 µM (inactive) | 21.6 µM (inactive) | > 31.6 µM (inactive) | > 31.6 µM (inactive) | 27.5 µM (inactive) | > 31.6 µM (inactive) | > 31.6 µM (inactive) | 23.5 µM (inactive) | 19.9 µM (inactive) | 89.3 µM (inactive) | > 31.6 µM (inactive) |  | > 31.6 µM (inactive) |
| CCCCOCn1c(=O)[nH]c(=O)c2cc(Br)ccc21 | 54.6 µM (inactive) | 14.3 µM (inactive) | 59.4 µM (inactive) | 44.2 | 42.5 µM (inactive) |  | 40.6 µM (inactive) | 36.5 µM (inactive) | 87.1 µM (inactive) | 68.2 µM (inactive) |  | 49.3 µM (inactive) | > 100 µM (inactive) | 31.1 µM (inactive) | 35.2 µM (inactive) | > 100 µM (inactive) | 53.5 µM (inactive) |  |  |
| CC1(c2ccc[n+](Cc3ccccc3)c2)OCCO1 | > 100 µM (inactive) | > 100 µM (inactive) | > 100 µM (inactive) | > 100 | > 100 µM (inactive) | > 100 µM (inactive) | > 100 µM (inactive) | > 100 µM (inactive) | > 100 µM (inactive) |  | > 100 µM (inactive) | > 100 µM (inactive) | > 100 µM (inactive) | > 100 µM (inactive) |  | > 100 µM (inactive) | > 100 µM (inactive) |  |  |
| CC(C)OP(=O)(OC(C)C)c1c(N)n[nH]c1Nc1ccccc1 | > 100 µM (inactive) | > 100 µM (inactive) | > 100 µM (inactive) | > 100 |  | > 100 µM (inactive) | > 100 µM (inactive) | > 100 µM (inactive) | > 100 µM (inactive) | > 100 µM (inactive) | > 100 µM (inactive) | > 100 µM (inactive) | > 100 µM (inactive) | > 100 µM (inactive) | > 100 µM (inactive) | > 100 µM (inactive) | > 100 µM (inactive) |  | 33 µM (inactive) |
| C[C@]12CCC(O)CC1=CC[C@@H]1[C@@H]2CC[C@]2(C)C(O)[C@H](n3ccnc3)C[C@@H]12 (some centres undefined) | > 100 µM (inactive) | 62.2 µM (inactive) | 17.9 µM (inactive) | 69.2 | 11.1 µM (inactive) |  | > 100 µM (inactive) | 56.2 µM (inactive) | > 100 µM (inactive) | 75 µM (inactive) | 19.5 µM (inactive) | > 100 µM (inactive) | > 100 µM (inactive) | > 100 µM (inactive) | 41.5 µM (inactive) | > 100 µM (inactive) | > 100 µM (inactive) |  | > 100 µM (inactive) |
| O=C1C(Cl)=C(Cl)C(=O)C(CCNc2nccs2)=C1Cl |  | 27.4 µM (inactive) | 0.335 µM (active) | 20.4 | 43.7 µM (inactive) | > 100 µM (inactive) | 14.8 µM (inactive) | 32.7 µM (inactive) | 20.2 µM (inactive) | 21.4 µM (inactive) | 31.2 µM (inactive) | > 100 µM (inactive) | 44.3 µM (inactive) | 29.5 µM (inactive) | 18.5 µM (inactive) | 29.4 µM (inactive) | 29.2 µM (inactive) |  | 33.5 µM (inactive) |
| COc1ccc(N2C(=O)C3c4[nH]c5ccccc5c4C4CCCCCCCCCC4C3C2=O)cc1 (centres undefined) | > 10 µM (inactive) | > 10 µM (inactive) | > 10 µM (inactive) | > 10 | > 10 µM (inactive) | > 10 µM (inactive) | > 10 µM (inactive) | > 10 µM (inactive) | > 10 µM (inactive) | > 10 µM (inactive) | > 10 µM (inactive) | > 10 µM (inactive) | > 10 µM (inactive) | > 10 µM (inactive) | > 10 µM (inactive) | > 10 µM (inactive) | > 10 µM (inactive) |  | > 10 µM (inactive) |
| CC(NC(=O)OC(C)(C)C)C(=O)C(N)=O (centres undefined) | > 100 µM (inactive) | > 100 µM (inactive) | > 100 µM (inactive) | > 100 | > 100 µM (inactive) | > 100 µM (inactive) |  |  | > 100 µM (inactive) | > 100 µM (inactive) | > 100 µM (inactive) |  | > 100 µM (inactive) | > 100 µM (inactive) | > 100 µM (inactive) | > 100 µM (inactive) | > 100 µM (inactive) |  | > 100 µM (inactive) |
| O=C1C=C(Nc2ccc(S(=O)(=O)Nc3ncccn3)cc2)c2ccccc2C1=O | 30.3 µM (inactive) | 27 µM (inactive) | 26.3 µM (inactive) | 22.5 | 25.4 µM (inactive) | 24.5 µM (inactive) | 26.5 µM (inactive) | 18.4 µM (inactive) | 18.2 µM (inactive) |  | 17.4 µM (inactive) | 21.8 µM (inactive) | 19.5 µM (inactive) | 20.2 µM (inactive) |  | 19.5 µM (inactive) | 37.4 µM (inactive) |  |  |
| CSc1nc2c3ccccc3ccn2c1C(=O)N/N=C/c1ccccc1 | 31.5 µM (inactive) | 9.06 µM (inactive) | > 100 µM (inactive) | > 100 | > 100 µM (inactive) | 13 µM (inactive) | 33.7 µM (inactive) | > 100 µM (inactive) | > 100 µM (inactive) | > 100 µM (inactive) | 30.2 µM (inactive) | 14.1 µM (inactive) | > 75.5 µM (inactive) | 18.5 µM (inactive) | > 100 µM (inactive) | 97.9 µM (inactive) |  |  | 30.8 µM (inactive) |
| COc1ccc([S+]([O-])Cc2cc(OC)ccc2OC)cc1 (centres undefined) | > 100 µM (inactive) | > 100 µM (inactive) | > 100 µM (inactive) | > 100 |  | > 100 µM (inactive) | > 100 µM (inactive) | > 100 µM (inactive) | > 100 µM (inactive) | > 100 µM (inactive) | > 100 µM (inactive) | > 100 µM (inactive) | > 100 µM (inactive) | > 100 µM (inactive) | > 100 µM (inactive) | > 100 µM (inactive) | > 100 µM (inactive) | > 100 µM (inactive) |  |
| CC1=CC(=O)C(=CN2C(=O)/C(=C\c3cccnc3)NC2=S)C(=O)O1 |  | > 100 µM (inactive) |  | > 100 | 54.3 µM (inactive) | > 100 µM (inactive) | > 100 µM (inactive) | > 100 µM (inactive) | > 100 µM (inactive) | > 100 µM (inactive) | > 100 µM (inactive) | > 100 µM (inactive) | > 100 µM (inactive) | > 100 µM (inactive) | > 100 µM (inactive) | > 100 µM (inactive) | > 100 µM (inactive) | > 100 µM (inactive) |  |
| COCC1N=C(c2cc(OC)c(OC)c(OC)c2-c2cc3c(cc2[C@H](C)O)OCO3)O[C@H]1c1ccccc1 (some centres undefined) |  | 40.7 µM (inactive) | > 10 µM (inactive) | 56.9 | > 10 µM (inactive) |  | > 100 µM (inactive) | 52.6 µM (inactive) | 72.3 µM (inactive) |  | 87.7 µM (inactive) | 33.5 µM (inactive) |  | 81.5 µM (inactive) |  | > 100 µM (inactive) | > 100 µM (inactive) |  |  |
| O=C(Cc1ccccc1)N[C@@H]1COC(=O)C2CCCN2C(=O)[C@@H]2CCCN2C1=O (some centres undefined) (PhAc-[dS]-Pro-[ξP]; ester 1-C) | > 100 µM (inactive) | > 100 µM (inactive) | > 100 µM (inactive) | > 100 | > 100 µM (inactive) | > 100 µM (inactive) | > 100 µM (inactive) | > 100 µM (inactive) | > 100 µM (inactive) | > 100 µM (inactive) | > 100 µM (inactive) | > 100 µM (inactive) | > 100 µM (inactive) | > 100 µM (inactive) | > 100 µM (inactive) | > 100 µM (inactive) | > 100 µM (inactive) |  | > 100 µM (inactive) |
